# Results as given in patent publication US20210106582A1, “COMPOUNDS AND PHARMACEUTICAL COMPOSITIONS THEREOF FOR USE IN THE TREATMENT OF FIBROTIC DISEASES” (Galapagos NV, priority 2017, published 2021).
# Several values for one entry are separate records, joined by “and”; a condition that tells them apart may be missing. Equal entries are not always repeated.
# What was measured:
# Format in all cases: in vivo
# [1] = system: male C57BL/6 mice fed a Methionine and Choline-deficient (MCD) diet; assay: MCD model (methionine and choline deficient diet, NASH); settings: individual animals, 30 mg/kg q.d. p.o., MCD diet 8 wk
# Description: The methionine and choline deficient (MCD) diet model is used to produce a severe phenotype of NASH in […] (Santhekadur et al., 2017), and is used to evaluate the compounds of the invention.
# At induction, 8 weeks-old male C57BL/6 mice (Janvier Labs, France) maintained at 22° C.±2° C. and humidity at 55%±10%, with a 12-hrs dark/light cycle are fed a standard diet (chow (A04C-10, Safe, France) or a Methionine and Choline-deficient (MCD) diet (EFTD.90262, Ssniff, Soest, Germany) for 8 weeks. All animals have access to filtered tap drinking water.
# Four weeks after the induction, the animals are either assigned to a control-group or a test-group.
# Test group animals are dosed with the a test compound, i.e. Compound A (CpdA) or Compound B (CpdB), at 30 mg/kg, q.d., p.o. formulated in methylcellulose 0.5%, 1 equivalent HCl. The control groups receives a similar volume of vehicle (10 mL/kg), i.e. the standard diet for control group 1 (C1) and the MCD diet for control group 2 (C2). Mice are randomly assigned to a treatment group according to their body weight in order to ensure a homogenous reparation.
# After sacrifice (week 8), the activity of the test compound on the development of NASH is assessed by plasma ALT and AST levels and in liver by histopathological examination of fibrosis and steatosis (Sirius red, Oil Red O), collagen (OH-Pro) and triglycerides content and expression of fibrotic and inflammatory genes.
# In addition, the NAS score is determined to further evaluate the compounds with respect to their effect on diet induced NASH. The nonalcoholic fatty liver disease activity scoring (NAS) has been proposed and accepted as a tool to measure changes in NAFLD during therapeutic trials (Brunt et al., 2011; Kleiner et al., 2005).
# The NAS score (0-8) is defined as the sum of the steatosis score (0-3), lobular inflammation score (0-3), ballooning score (0-2). A NAS score of ≥5 is indicative of a NASH diagnostic.
# [2] = system: male C57BL/6 mice fed CDAHF diet; assay: CDAHFD model (choline-deficient, L-amino acid-defined, high-fat diet); settings: individual animals, CDAHFD 10W, 30 mg/kg q.d. p.o.
# [3] = system: female C57BL/6J mice, lung fibrosis induced by radiation; assay: Radiation induced fibrosis mice model; settings: individual animals, irradiated lung, nintedanib 60 mg/kg QD PO D1-D14
# Description: Pneumonitis and lung fibrosis are the major radiation-induced complications following thoracic radiotherapy, which is one of the major treatment of lung and breast cancers, lymphomas and hematopoietic transplant conditioning.
# The objective of this model is to evaluate the effect of a compound of the invention in lung fibrosis induced by radiation in mice. (Bickelhaupt et al., 2017)
# 7 weeks old (18/22 gr) female C57BL/6J mice from Charles River (France) are maintained on 12 h light/dark cycle at 22° C. with ad libidum access to tap water and food.
# The test compounds are dissolved/suspended in appropriate vehicle prior to using and then kept light-free, under agitation at room temperature.
# The dose volume administered is 10 mL/kg and the volume is adapted following mean body weight (BW) of the group as follows: 200 μL if mean BW<22.5 g, 250 μL if mean BW≥22.5 g; 300 μL if mean BW>27.5 g.
# On day 1 of week 1, the animals are exposed at the thorax to a 17 Gray irradiation dose, under isoflurane anesthesia. […]
# Body weight are recorded once a week, and on Day 14, lung function measurement under anesthesia is realized by Flexivent (Devos et al., 2017) for all groups before sacrifice.
# At sacrifice on Day 14, the lungs are collected and fixed in 4% formaldehyde for 24 h before embedding in paraffin. […] The anti-collagen I antibody is detected and amplified by ImmPress kit (Vector Laboratories, Cat. No: MP-7401). The immunostained sections are then scanned (Nanozoomer 2.0HT, Hamamatsu) before quantification by image analysis (CaloPix software, TRIBVN Healthcare). Data are expressed as percentage collagen I area per area of lung tissue.
# Values for all mice from the same group are averaged. Data are expressed as mean±sem and are compared with a one-way ANOVA followed by Dunnett multiple comparison post hoc test. […]
# Manganese superoxide dismutase (MnSOD), located in mitochondria, catalyzes the conversion of superoxide into H2O2, and is a marker of antioxidant response induced by oxidative stress. MnSOD expression is measured immunohistochemically following a protocol adapted from Inghilleri et al. (Inghilleri et al., 2006).
# At sacrifice on Day 14, the lungs are collected and fixed in 4% formaldehyde for 24 h before embedding in paraffin. […] The anti-MnSOD antibody is detected by an anti-rabbit biotinylated antibody (Vector Laboratories, Cat. No: BA-1100) amplified by avidin-biotin peroxidase (Vector Laboratories, Cat. No: PK-6100). […] The immunostained sections counterstained with Gill's hematoxylin are then scanned (Nanozoomer 2.0HT, Hamamatsu) before quantification by image analysis (CaloPix software, TRIBVN Healthcare). Data are expressed as percentage MnSOD stained area per area of lung tissue.
# [4] = system: C57BL/6N male mice, bleomycin induced pulmonary fibrosis; assay: Therapeutic bleomycin induced pulmonary fibrosis 21-day mice model; settings: individual animals, BLM, nintedanib 60 mg/kg QD PO D7-D21
# Description: The aim of the study is to test the efficacy of a test compound at three different doses in a 21-day model of bleomycin induced pulmonary fibrosis in mice.
# 11 week-old C57BL/6N male mice from Charles River (Italy) are maintained on 12 h light/dark cycle at 22° C. with ad libidum access to tap water and food.
# On day 0, all mice in groups 2-4 receive a 1.5 U/kg oropharyngeal administration of bleomycin (BLM) to induce pulmonary fibrosis Animals in group 1 are not administered bleomycin, but instead receive a single dose of saline via the oropharyngeal route, and are considered sham control mice.
# Animals are examined clinically twice daily. List of clinical signs and parameters are indicated in humane endpoints table. Animals are weighed daily starting from DO.
# On day 21, lung functionality is determined. After deep anesthesia induced by an intraperitoneal injection (10 mL/kg) of a solution of xylazine (5 mg/kg) and ketamine (75 mg/kg), the trachea is exposed through midline incision and a cannula is inserted. Mice are ventilated with a tidal volume of 10 mL/kg at a frequency of 150 breaths/minute. FlexiVent (SCIREQ®) perturbations are performed three times. Deep Inflation and Pressure-Volume loops (PV loops) with stepwise increasing pressure are performed to measure the Inspiratory Capacity and stepwise pressure-driven perturbation (PVs-P). PV loops between 0 and 30 cm H2O are generated to obtain Total Lung Capacity (A). A snapshot perturbation maneuver is imposed, which is a threefold sinusoidal wave of in- and expiration controlled by the ventilator, resulting in resistance (Rrs), compliance (Crs), and elastance (Ers) of the whole respiratory system (airways, lung and chest wall). A value for each group is calculated with average FlexiVent-validated measurements recorded in each individual subject.
# Then, two hours after the last dose of test substance and nintedanib, mice are sacrificed by anesthetic overdose. The lungs are excised and weighed individually. The lungs are then placed into marked bottles containing 10% buffered formalin for further histopathological evaluation.
# Body weight data and lung weight data are processed using MS Excel. Statistical analysis and graphical presentation are performed using GraphPad Prism software (version 5.04).
# For histopathological evaluation, whole lungs are embedded in paraffin and stained with Mallory's trichrome.
# Pulmonary histological changes are assessed using Matsuse's modification of Ashcroft score (Ashcroft et al., 1988; Matsuse et al., 1999). Statistical analysis and graphical presentation is performed using GraphPad Prism software (version 5.04). Mann-Whitney test is employed.
# Differences between groups are considered statistically significant when p<0.05.
smiles,measurement,setting,value
"Cc1c2n(c(OC[C@@H]3COCCO3)cc1=O)CCc1cc(OCC(F)(F)F)ccc1-2 [Compound B, 4-[[(2S)-1,4-dioxan-2-yl]methoxy]-1-methyl-9-(2,2,2-trifluoroethoxy)-6,7-dihydrobenzo[a]quinolizin-2-one]",TIMP1 NRQ gene expression,"[1]; NRQ scaled versus disease, Fig 8 Panel B",0.3 (3×) and 0.4 (2×) and 0.5 and 1.7 (2×) and 1.2 and 1.4
same,Col1a NRQ gene expression,"[1]; dosing from week 4, Normalised Relative Quantity scaled versus disease, FIG. 8 Panel A",0.5 and 2.0 and 1.3 and 1.5 (2×) and 0.4 and 0.3 (2×) and 0.2 (2×)
same,TNfα NRQ gene expression,"[1]; liver, NRQ scaled versus disease, Fig 9 Panel A",0.4 (2×) and 0.7 and 1.1 (2×) and 0.8 and 0.9 and 0.6 and 0.3 (2×)
same,CC12 NRQ gene expression,"[1]; liver, NRQ scaled versus disease, Fig 9 Panel B",0.8 and 0.3 and 0.7 (2×) and 1.2 (2×) and 0.9 (2×) and 1.5 and 0.5
same,NAS scoring data,"[1]; total NAS score (0-8), Fig 10",5.0 and 7.0 (2×) and 6.0 (7×)
"CSc1ccc(C(=O)/C=C/c2cc(C)c(OC(C)(C)C(=O)O)c(C)c2)cc1 [CpdC, elafibranor, reference compound]",Col1a1 expression profiles (NRQ-scaled versus Disease-Vehicle),[2]; Fig 12 panel A,0.07 and 0.06 and 0.48 and 0.15 and 0.09 and 0.43 and 0.61 and 0.17
same,TNFα expression profiles (NRQ-scaled versus Disease-Vehicle),[2]; Figure 12 panel B,0.45 and 0.19 and 0.41 and 0.75 and 0.55 and 0.32 (2×) and 0.26 and 0.52
same,Fibrosis (Sirius red area %),"[2]; liver, Figure 11",0.45% and 0.19% and 0.41% and 0.75% and 0.55% and 0.32% (2×) and 0.26% and 0.52%
COC(=O)c1ccc2c(c1)NC(=O)/C2=C(\Nc1ccc(N(C)C(=O)CN2CCN(C)CC2)cc1)c1ccccc1 [nintedanib],Type I collagen stained area fraction,[3]; Figure 15,10.5% (2×) and 7.6% and 7.1% and 6.5% and 11.0% and 8.2% and 9.3% and 8.9% and 13.7%
same,MnSOD stained area fraction,[3]; Figure 16,1.19% and 0.75% and 0.25% and 0.50% and 0.79% and 0.62% and 0.69% and 0.92% and 0.53% and 1.11%
same,Compliance of the Respiratory System,[4]; Figure 14 panel B,0.039 mL/cmH2O (2×) and 0.031 mL/cmH2O and 0.032 mL/cmH2O (2×) and 0.040 mL/cmH2O and 0.027 mL/cmH2O (3×) and 0.034 mL/cmH2O and 0.035 mL/cmH2O and 0.045 mL/cmH2O and 0.015 mL/cmH2O
same,Elastance of the Respiratory System,[4]; Figure 14 panel C,25.83 cmH2O/mL and 32.61 cmH2O/mL and 31.04 cmH2O/mL and 25.16 cmH2O/mL and 37.06 cmH2O/mL and 36.60 cmH2O/mL and 31.06 cmH2O/mL and 29.07 cmH2O/mL and 37.31 cmH2O/mL and 28.26 cmH2O/mL and 25.68 cmH2O/mL and 22.39 cmH2O/mL and 68.28 cmH2O/mL
same,Ashcroft Score,"[4]; Matsuse's modification, Figure 13",2.0 and 2.3 and 2.8 and 3.2 and 3.7 (2×) and 3.5 (4×) and 3.0 (2×) and 3.4 and 2.5 and 2.4
same,Inspiratory Capacity,"[4]; day 21 FlexiVent, Figure 14 panel A",0.69 mL and 0.57 mL and 0.62 mL and 0.71 mL and 0.48 mL and 0.58 mL and 0.68 mL and 0.53 mL and 0.56 mL and 0.76 mL and 0.78 mL and 0.33 mL
